Values of other authors as cited in patent US7319013B2, “Serine hydroxymethyltransferase as a target for herbicides” (BASF Aktiengesellschaft, priority 2002, dated 2008).

Assays:
ovine SHMT = target: T1, ovine SHMT (Ovis aries, UniProt P35623); settings: micromolar concentrations
T1 sequence (P35623 2-484 limits assumed): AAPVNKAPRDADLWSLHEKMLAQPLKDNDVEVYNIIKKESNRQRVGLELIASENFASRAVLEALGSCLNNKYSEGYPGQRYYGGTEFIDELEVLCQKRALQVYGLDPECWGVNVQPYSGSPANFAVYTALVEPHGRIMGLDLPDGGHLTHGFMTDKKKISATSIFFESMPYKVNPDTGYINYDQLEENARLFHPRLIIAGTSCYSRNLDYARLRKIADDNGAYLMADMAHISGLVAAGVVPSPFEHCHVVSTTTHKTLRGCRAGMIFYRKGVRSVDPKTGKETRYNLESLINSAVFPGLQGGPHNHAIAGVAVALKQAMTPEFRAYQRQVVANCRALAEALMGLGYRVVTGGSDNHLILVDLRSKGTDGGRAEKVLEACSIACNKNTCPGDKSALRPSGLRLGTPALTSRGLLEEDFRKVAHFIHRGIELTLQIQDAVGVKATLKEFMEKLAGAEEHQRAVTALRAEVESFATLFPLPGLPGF

[1] = test system: SHMT from Euglena gracilis; settings: millimolar concentrations
SHMT from CHO cells [2] = settings: by means of photo-linkage
SHMT from CHO cells [3] = test system: SHMT from CHO cells

NOC[C@@H](N)C(=O)O [O-amino-D-serine]
inhibitory effect on SHMT (ovine SHMT): have an inhibitory effect

N[C@@H](CS)C(=O)O [cystein]
inhibition of SHMT [1]: can be inhibited

NCC(=O)O [glycin]
inhibition of SHMT [1]: can be inhibited

NC(Cn1ccc(=O)c(O)c1)C(=O)O (stereo not drawn) [mimosine]
binding to SHMT (SHMT from CHO cells [2]): can be bound
inhibition of SHMT (SHMT from CHO cells [3]): does not inhibit it

N[C@@H](CO)C(=O)O [serine]
inhibition of SHMT [1]: can be inhibited
